Reference: patent publication US7205011B2, “Anti-inflammatory activity of a specific turmeric extract” (Board of Regents, Acting for and on behalf of, University …, priority 2003, dated 2007)
Values after ≈ are worked out from the molar mass of the structure shown. Where two headings read alike, the source gives them in different places.

Legend:
[1] = test system: LPS-induced PGE2 production; assay: Inhibition of LPS-induced PGE2 production in PMA-differentiated HL-60 cells (ELISA); type: cell-based; settings: Homo sapiens
[2] = test system: LPS-induced TNF-α production; assay: Inhibition of LPS-induced TNF-α production in PMA-differentiated HL-60 cells (ELISA); type: cell-based; settings: Homo sapiens, read-out: IC50 TNF-α (50% inhibition of LPS-induced mediator production)
COX-2 mRNA = assay: COX-2 expression assay (Quantikine mRNA) in LPS-stimulated HL-60 cells; settings: HL-60 cells + LPS
TNF-α = settings: Chan et al. 1995; Abe et al. 1999; cited from earlier work
COX-2 expression = settings: Lee et al. 2002; IC50 values not reported; cited from earlier work
[3] = Table 1, curcuminoids from fraction 5, HL-60 cells, LPS 1 μg/ml, 24 hrs, read-out: IC50 PGE2 (50% inhibition of LPS-induced mediator production)
[4] = Table 1, curcuminoids from fraction 5, HL-60 cells, LPS 1 μg/ml, 24 hrs

`O=C(/C=C/c1ccc(O)cc1)CC(=O)/C=C/c1ccc(O)cc1` (single isomer, unassigned) [Bisdemethoxycurcumin, bisdemethoxycurcumin] gave an IC50 [1, 3] of 1.2 µg/mL (≈ 3.89 µM) and an IC50 [2, 4] of 24.6 µg/mL (≈ 79.8 µM).

`COc1ccc2c(c1)c(CC(=O)O)c(C)n2C(=O)c1ccc(Cl)cc1` [indomethacin] showed an IC50 ([1]; HL-60 cells, LPS 1 μg/ml, 24 hrs, read-out: IC50 for LPS-induced PGE2 production) of 0.052 µg/mL (≈ 0.145 µM).

With `COc1cc(/C=C/C(=O)CC(=O)/C=C/c2ccc(O)c(OC)c2)ccc1O` (single isomer, unassigned) [Curcumin, curcumin] the “inhibition (decrease) of COX-2 expression” value (COX-2 mRNA; 0.5 μg/mL, 24 hrs, relative to LPS alone = 100%) was “greater than 50%”, the “inhibition of COX-2 expression” value (COX-2 mRNA; 1.0 μg/ml, 24 hrs, relative to LPS alone = 100%) was “greater than 50%” and the “effect on COX-2 expression / COX-2 mRNA levels” value (COX-2 mRNA; concentration not given, result in words) was “inhibited COX-2 expression”. For the same compound, the IC50 [1, 3] was 0.45 µg/mL (≈ 1.22 µM), the “concentration producing 50% decrease in production of TNF-α” value (TNF-α) was 2 to 10 µg/mL and the IC50 [2, 4] was 28.8 µg/mL (≈ 78.2 µM).

For `CC(C)=CCC[C@@H](C)c1ccc(C)c(O)c1` [xanthorrhizol], the “concentrations showing inhibition of COX-2 expression” value (COX-2 expression) is listed as 5 to 10 µg/mL.

`COc1cc(/C=C/C(O)=C/C(=O)/C=C/c2ccc(O)cc2)ccc1O` (single isomer, unassigned) [Demethoxycurcumin, demethoxycurcumin] showed an IC50 ([1]; HL-60, 24 h, read-out: IC50 PGE2 (50% inhibition of LPS-induced mediator production)) of 2.6 µg/mL (≈ 7.68 µM) and an IC50 ([2]; HL-60, 24 h) of 24.7 µg/mL (≈ 73 µM).
